The structures appear in SMILES notation. Bounds are passed on as bounds.

This note sets out measurements from US20250361239A1, “PROTEIN DEGRADERS AND USES THEREOF” (ZHUHAI YUFAN BIOTECHNOLOGIES CO., LTD., priority 2022, published 2025).

Common to all, as to assay type: cell-based
Assay [1] has as its system HL60 cells. Put plainly: HL60 cell killing experiment (CellTiter-Glo cell viability). The following applies: CTG luminescence. On the procedure: HL60 cell lines were purchased from ATCC (Cat #ATCC® CCL-240™), IMDM media were purchased from ATCC (Cat #ATCC® 30-2005™), FBS was purchased from Gibco (Cat #10091148), celltiter-glo luminescent cell viability assay was purchased from promega (Cat #G7572), and 96-well plates were purchased from corning (Cat #3610).
(§1) The effect of compounds on the growth of HL60 cells was determined by measuring cell viability. Firstly, cells in the logarithmic growth phase were collected and centrifuged, and the culture supernatant was discarded. The centrifuged cells were resuspended in a fresh complete medium, and the cell density was adjusted to 5×10^4 cells/mL. The resuspended cells were inoculated into two opaque 96-well cell culture plates at 100 μL of cell suspension per well, and the cell culture plates were incubated in a cell incubator at 37° C. for 4 h. After 4 h, dilutions (20 μL) of compounds with different concentrations were added. After one of the cell plates was cooled to room temperature, 60 μL of CTG reagent was added, and the luminescence values were read on the instrument as G0. The other one was incubated in a cell incubator for 48 h. After 48 h, 60 μL of CTG reagent was added, and the luminescence values were read on the instrument as G3.
(§2) According to the corresponding proliferation rate and concentration of each gradient concentration well, a gradient curve of cell proliferation was fitted using XLFit software, and the GI50 values of compounds were calculated.

The test system of assay [2] is Hep3B cells. Put plainly: Hep3B cell killing experiment (CellTiter-Glo cell viability). The following applies: Homo sapiens, 48 h incubation, CTG luminescence. On the procedure: Hep3B cell lines were purchased from ATCC (Cat #ATCC® HB-8064™), EMEM media were purchased from ATCC (Cat #ATCC® 30-2003™), FBS was purchased from Gibco (Cat #10091148), celltiter-glo luminescent cell viability assay was purchased from promega (Cat #G7572), and 96-well plates were purchased from coming (Cat #3610).
The effect of compounds on the growth of Hep3B cells was determined by measuring cell viability and growth rate. Firstly, the cells were digested with pancreatin, and the digestion was then terminated with medium. The cells were centrifuged, and the supernatant was discarded. The centrifuged cells were resuspended in a fresh complete medium, and the cell density was adjusted to 5×10^4 cells/mL. The resuspended cells were inoculated into two identical opaque 96-well cell culture plates at 100 μL of cell suspension per well, and the cell culture plates were incubated in a cell incubator at 37° C. overnight. The next day, dilutions (20 μL) of compounds with different concentrations were added. After one of the cell plates was cooled to room temperature, 60 μL of CTG reagent was added. The luminescence values were read on the instrument as G0. The other one was incubated in a cell incubator for 48 h. After 48 h, 60 μL of CTG reagent was added, and the luminescence values were read on the instrument as G3.
as §2
A general note: In ATP-based viability assays light output follows the ATP content of the culture.

Assay [3] has as its system NCI-H929 cells. Put plainly: NCI-H929 cell killing experiment (CellTiter-Glo cell viability). The note with it: Homo sapiens, 48 h incubation, CTG luminescence. On the procedure:
NCI-H929 cell lines were purchased from ATCC (Cat #ATCC® CRL-9068™), RPMI1640 media were purchased from ATCC (Cat #ATCC® 30-2001™), FBS was purchased from Gibco (Cat #10091148), celltiter-glo luminescent cell viability assay was purchased from promega (Cat #G7572), and 96-well plates were purchased from coming (Cat #3610).
as §1, with “2. Method The effect” for “The effect”, “growth of NCI-H929 cells was” for “growth of HL60 cells was”, “measuring cell viability and growth rate. Firstly, cells” for “measuring cell viability. Firstly, cells”, “into two identical opaque 96-well” for “into two opaque 96-well”
as §2

In assay [4] the target is T1, GSPT1 (Homo sapiens, UniProt P15170+Q96SW2).
T1 construct: host or cells: HEK293
Put plainly: Degradation of GSPT1 by the compounds (HiBiT signal in GSPT1/HEK293 hibit cells). The note with it: 6 h incubation, Nano Glo HiBiT Lytic Detection. On the procedure:
GSPT1/HEK293 hibit cell lines were constructed by Shanghai BioDuro Co., Ltd., HEK293 cell lines were purchased from ATCC (Cat #ATCC® CRL-1573™), DMEM media were purchased from ATCC (Cat #ATCC® 30-2002™), FBS was purchased from Gibco (Cat #10091148), Nano Glo HiBiT Lytic Detection System was purchased from Promega (Cat #N3040), and 96-well plates were purchased from coming (Cat #3610).
The degradation of GSPT1 by the compounds was determined by measuring the intensity of hibit signals in cells. Firstly, the cells were digested with pancreatin, and the digestion was then terminated with medium. The cells were centrifuged, and the supernatant was discarded. The centrifuged cells were resuspended in a fresh complete medium, and the cell density was adjusted to 2.5×10^4 cells/mL. The resuspended cells were inoculated into an opaque 96-well cell culture plate at 100 μL of cell suspension per well, and the cell culture plate was incubated in a cell incubator at 37° C. overnight. The next day, dilutions (20 μL) of compounds with different concentrations were added, and the plate was incubated in a cell incubator for 6 h. After 6 h, 60 μL of Nano Glo HiBiT Lytic Detection System reagent was added and the luminescence values were read on the instrument.
According to the corresponding degradation rate and concentration of each gradient concentration well, a gradient curve of degradation rate was fitted using XLFit software, and the DC50 values of compounds were calculated.
(In general: The HiBiT peptide binds its large partner to form an active luciferase.)

Assay [5] concerns Jurkat cells. The assay can be described thus: Jurkat cell killing experiment (CellTiter-Glo cell viability). The note with it: Homo sapiens, 48 h incubation, CTG luminescence. On the procedure:
Jurkat cell lines were purchased from ATCC (Cat #ATCC® TIB-152™), RPMI1640 media were purchased from ATCC (Cat #ATCC® 30-2001™), FBS was purchased from Gibco (Cat #10091148), celltiter-glo luminescent cell viability assay was purchased from promega (Cat #G7572), and 96-well plates were purchased from coming (Cat #3610).
as §1, with “Jurkat” for “HL60”, “viability and growth rate.” for “viability.”, “two identical” for “two”
as §2

The subject of assay [6] is Toledo cells. Put plainly: Toledo cell killing experiment (CellTiter-Glo cell viability). The following applies: Homo sapiens, 48 h incubation, CTG luminescence. How it is done: Toledo cell lines were purchased from ATCC (Cat #ATCC® CRL-2631™), RPMI1640 media were purchased from ATCC (Cat #ATCC® 30-2001™), FBS was purchased from Gibco (Cat #10091148), celltiter-glo luminescent cell viability assay was purchased from promega (Cat #G7572), and 96-well plates were purchased from coming (Cat #3610).
as §1, with “Toledo” for “HL60”, “viability and growth rate.” for “viability.”, “two identical” for “two”
as §2

Setting [7] is: Homo sapiens, HL-60, 48 h incubation.

T1 sequence (P15170 whole entry): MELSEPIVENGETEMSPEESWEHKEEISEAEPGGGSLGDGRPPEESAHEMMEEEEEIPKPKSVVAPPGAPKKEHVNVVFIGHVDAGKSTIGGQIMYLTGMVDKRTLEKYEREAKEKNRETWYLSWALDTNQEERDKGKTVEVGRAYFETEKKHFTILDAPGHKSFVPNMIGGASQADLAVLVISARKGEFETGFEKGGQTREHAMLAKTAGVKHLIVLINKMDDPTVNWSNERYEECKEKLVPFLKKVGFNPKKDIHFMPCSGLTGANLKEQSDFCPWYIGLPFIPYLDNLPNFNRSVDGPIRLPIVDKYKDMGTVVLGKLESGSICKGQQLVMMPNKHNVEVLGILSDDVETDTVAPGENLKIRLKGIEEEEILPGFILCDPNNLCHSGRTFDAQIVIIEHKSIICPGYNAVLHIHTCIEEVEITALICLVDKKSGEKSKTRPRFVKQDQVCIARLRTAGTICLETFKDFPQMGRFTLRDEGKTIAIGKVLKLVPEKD
T1 sequence (Q96SW2 whole entry): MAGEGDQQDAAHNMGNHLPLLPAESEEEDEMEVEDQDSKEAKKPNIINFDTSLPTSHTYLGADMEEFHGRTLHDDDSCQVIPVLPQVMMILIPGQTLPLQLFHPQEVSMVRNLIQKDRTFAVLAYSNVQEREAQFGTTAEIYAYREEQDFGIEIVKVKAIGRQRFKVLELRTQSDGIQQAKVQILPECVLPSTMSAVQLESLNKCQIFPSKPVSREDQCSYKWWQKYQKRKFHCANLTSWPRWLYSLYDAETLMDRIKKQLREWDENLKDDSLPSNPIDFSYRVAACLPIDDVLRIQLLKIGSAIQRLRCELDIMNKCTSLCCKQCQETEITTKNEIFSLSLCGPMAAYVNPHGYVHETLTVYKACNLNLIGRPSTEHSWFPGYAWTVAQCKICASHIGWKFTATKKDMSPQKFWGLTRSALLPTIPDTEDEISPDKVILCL
T1 sequence (Q16531 whole entry partner): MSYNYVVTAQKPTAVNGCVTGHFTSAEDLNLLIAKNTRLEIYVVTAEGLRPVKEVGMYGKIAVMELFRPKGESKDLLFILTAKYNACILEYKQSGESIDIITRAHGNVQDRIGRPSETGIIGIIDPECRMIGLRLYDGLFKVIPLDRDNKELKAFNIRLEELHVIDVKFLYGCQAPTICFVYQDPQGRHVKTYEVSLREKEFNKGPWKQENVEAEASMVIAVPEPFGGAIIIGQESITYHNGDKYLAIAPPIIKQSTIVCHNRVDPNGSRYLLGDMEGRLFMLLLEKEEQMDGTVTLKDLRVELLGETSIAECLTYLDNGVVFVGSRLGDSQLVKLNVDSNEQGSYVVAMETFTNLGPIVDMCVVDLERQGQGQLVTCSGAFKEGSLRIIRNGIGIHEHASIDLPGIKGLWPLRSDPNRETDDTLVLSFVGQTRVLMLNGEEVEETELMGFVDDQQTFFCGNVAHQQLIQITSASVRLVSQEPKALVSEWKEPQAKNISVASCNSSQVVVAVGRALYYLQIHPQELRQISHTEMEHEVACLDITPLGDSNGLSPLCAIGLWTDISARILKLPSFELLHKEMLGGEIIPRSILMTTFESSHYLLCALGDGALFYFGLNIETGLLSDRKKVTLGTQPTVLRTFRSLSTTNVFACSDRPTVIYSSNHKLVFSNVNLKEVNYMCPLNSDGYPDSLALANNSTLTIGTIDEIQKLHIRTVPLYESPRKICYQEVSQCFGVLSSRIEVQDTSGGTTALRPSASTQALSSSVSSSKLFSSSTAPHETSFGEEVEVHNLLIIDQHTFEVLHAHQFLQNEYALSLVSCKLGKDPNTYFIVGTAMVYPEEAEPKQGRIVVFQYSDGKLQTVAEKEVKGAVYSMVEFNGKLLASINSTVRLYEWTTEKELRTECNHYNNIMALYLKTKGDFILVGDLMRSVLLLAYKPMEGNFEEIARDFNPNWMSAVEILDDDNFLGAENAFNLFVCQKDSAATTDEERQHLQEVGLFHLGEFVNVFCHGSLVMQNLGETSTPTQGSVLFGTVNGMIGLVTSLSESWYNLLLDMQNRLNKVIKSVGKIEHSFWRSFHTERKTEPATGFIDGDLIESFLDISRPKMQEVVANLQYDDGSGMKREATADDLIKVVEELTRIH

As usually defined, the GI50 is the concentration that inhibits growth by half. Lower therefore signals greater sensitivity of the cells. One may read the DC50 as the concentration giving 50% degradation. For `Cn1c(C2CCC(NC(=O)C3CC(CNc4cccc5c4C(=O)N(C4CCC(=O)NC4=O)C5=O)C3)CC2)nc2ccncc21` (stereo not drawn) [Example 10], the values for the 50% growth inhibitory concentration (GI50) in assay [1] (setting [7]), in assay [2] and in assay [3] were under 100 nM, 6.91 nM and 19.6 nM, respectively. Besides, in assay [4], the 50% degradation concentration (DC50) was under 100 nM.

With `Cn1c2cnccc2nc1[C@H]1CC[C@H](NC(=O)c2cc(CNc3cccc4c3C(=O)N(C3CCC(=O)NC3=O)C4=O)ccn2)CC1` (stereo partly drawn) [Example 26], the GI50 in assay [1] (setting [7]) was under 100 nM; in assay [5], 2.24 nM; in assay [2] it was 2.7 nM; in assay [6] it was 11.7 nM. The compound further returned a DC50 in assay [4] of under 100 nM.

As to `Cn1c(C2CCC(NC(=O)c3cc(CNc4cccc5c4C(=O)N(C4CCC(=O)NC4=O)C5=O)ccn3)CC2)nc2ccncc21` (stereo not drawn) [Example 39], the GI50 is under 100 nM in assay [1] (48 h incubation), 1.73 nM in assay [5], 0.99 nM in assay [2] and 3.58 nM in assay [6]. For the same compound, the half-maximal degradation concentration (DC50) in assay [4] is under 100 nM.

For `O=C1CCC(N2C(=O)c3cccc(NCc4cccc(C(=O)N[C@H]5CC[C@H](c6nc7cccnc7s6)CC5)c4)c3C2=O)C(=O)N1` (stereo partly drawn) [Example 61], the 50% growth inhibitory concentration (GI50) was under 100 nM in assay [1] (setting [7]), 1.48 nM in assay [2], 1.08 nM in assay [3] and 5.31 nM in assay [6]. For the same compound, in assay [4], the half-maximal degradation concentration (DC50) was under 100 nM.

Take `COc1ccc(CNc2cccc3c2C(=O)N(C2CCC(=O)NC2=O)C3=O)cc1C(=O)N[C@H]1CC[C@H](c2nc3cccnc3s2)CC1` (stereo partly drawn) [Example 94]: the 50% growth inhibitory concentration (GI50) was under 100 nM in assay [1] (setting [7]) and 2.51 nM in assay [5]. This compound also returned a DC50 in assay [4] of under 100 nM.

As to `COc1ccc2c(c1)nc([C@H]1CC[C@H](N(C)C(=O)c3cc(CNc4cccc5c4C(=O)N(C4CCC(=O)NC4=O)C5=O)ccn3)CC1)n2C` (stereo partly drawn) [Example 105], the 50% growth inhibitory concentration (GI50) in assay [5] worked out at 1.3 nM.

In assay [1] (setting [7]), `Cn1c(C2CCC(NC(=O)CCCCNc3cccc4c3C(=O)N(C3CCC(=O)NC3=O)C4=O)CC2)nc2c3c(C4CCCCC4)c[nH]c3ncc21` (stereo not drawn) [Example 110] gave a GI50 of under 100 nM. For the same compound, the DC50 in assay [4] is under 100 nM.

On to `Cn1cc(C2CCOCC2)c2c3nc(C4CCC(NC(=O)CCCCNc5cccc6c5C(=O)N(C5CCC(=O)NC5=O)C6=O)CC4)[nH]c3cnc21` (stereo not drawn) [Example 112], for which, in assay [1] (setting [7]), the GI50 is under 100 nM. The compound also displayed a DC50 in assay [4] of under 100 nM.

With `Cn1c(C2CCC(NC(=O)CCCCNc3cccc4c3C(=O)N(C3CCC(=O)NC3=O)C4=O)CC2)nc2c3c(C4CCOCC4)c[nH]c3ncc21` (stereo not drawn) [Example 113], the concentration for 50% growth inhibition (GI50) in assay [1] (setting [7]) is under 100 nM; in assay [6], 1.53 nM. The compound also had a DC50 in assay [4] of under 100 nM.

Compound `O=C1CCC(N2C(=O)c3cccc(NCc4cccc(C(=O)NC5CCC(c6nc7c(cnc8[nH]cc(C9CCOCC9)c87)[nH]6)CC5)c4)c3C2=O)C(=O)N1` (stereo not drawn) [Example 115] returned a GI50 in assay [1] (setting [7]) of under 100 nM. The compound also had a half-maximal degradation concentration (DC50) in assay [4] of under 100 nM.

With `O=C1CCC(N2C(=O)c3cccc(NCc4ccc(C(=O)NC5CCC(c6nc7c(cnc8[nH]cc(C9CCOCC9)c87)[nH]6)CC5)cc4)c3C2=O)C(=O)N1` (stereo not drawn) [Example 116], in assay [1] (setting [7]), the GI50 was under 100 nM. For the same compound, in assay [4], the DC50 is under 100 nM.

For the compound `Cn1c2cc(N)ccc2nc1[C@H]1CC[C@H](NC(=O)c2cc(CNc3cccc4c3C(=O)N(C3CCC(=O)NC3=O)C4=O)ccn2)CC1` (stereo partly drawn) [Example 130], the 50% growth inhibitory concentration (GI50) in assay [1] (setting [7]) is under 100 nM. Moreover, the half-maximal degradation concentration (DC50) in assay [4] is under 100 nM.
